Experiment [1] concerns the target T1, ADO-Zn^2+ (Homo sapiens, UniProt Q96SZ5).
T1 construct: Full-length human ADO (UniProt ID: Q96SZ5) was cloned; made in house; host or cells: Rosetta2(DE3) Escherichia coli, M9 minimal media with 0.2 mM Co2+ or Zn2+
T1 sequence (Q96SZ5 1-270): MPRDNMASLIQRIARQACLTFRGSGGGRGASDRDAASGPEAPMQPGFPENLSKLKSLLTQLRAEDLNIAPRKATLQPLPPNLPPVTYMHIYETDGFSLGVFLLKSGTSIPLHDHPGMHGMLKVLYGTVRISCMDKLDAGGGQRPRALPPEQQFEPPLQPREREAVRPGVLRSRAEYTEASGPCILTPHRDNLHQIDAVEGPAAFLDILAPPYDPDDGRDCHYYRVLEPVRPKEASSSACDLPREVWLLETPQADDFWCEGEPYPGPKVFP
Put plainly: LC-MS turnover time course with zinc-substituted ADO. Particulars: 100 μM peptide, 0.1 μM enzyme, 37 °C, attributed to residual iron bound ADO. Format: biochemical. The method, then: (§1) The catalytic functionality of the metal substituted ADO proteins was subsequently assessed by LC-MS using RGS5 peptide as a representative protein substrate. […] However, product formation was observed following long incubation times (≥30 min), with ∼80% conversion detected overnight, which is likely attributed to the activity of residual iron bound ADO (Fig. 2, E and H). Together, these findings indicate that different transition metals can substitute iron to facilitate protein substrate binding but not catalysis.
(§2) The enzymatic activity of ADO was examined by incubating between 0 to 1000 μM peptide and protein substrates with 0.05 to 0.1 μM ADO in a bench-top thermomixer at 37 °C for 45 s. Otherwise stated, the reaction buffer contained 50 mM Tris pH 7.5, 50 mM NaCl, and 5 mM TCEP. […]
(§3) Peptide and protein samples were injected onto a Chromolith RP-18 Endcapped HPLC Columns (100–2 mm; Merck) and Discovery BIO Wide Pore C5 HPLC Column (Supelco), respectively, heated to 40 °C and eluted at 0.3 ml/min using a gradient of 95% deionized water supplemented with 0.1% (v/v) formic acid to 95% acetonitrile. Oxidation was monitored by an ultra high-performance liquid chromatography MS using ExionLC AD (Sciex) and SelexION (Sciex) mass spectrometer operated in a positive electrospray TOF (+ESI-TOF) mode. […]

For experiment [2], the target named is T1, ADO-Zn^2+. Put plainly: SPR binding to zinc-substituted ADO. Particulars: SPR steady state, 1:1 model, 4 °C; geometric mean of minimum three independent measurements. The method, then:
(§4) To study if different metals can compensate for the inherent iron cofactor, zinc (Zn^2+) and cobalt (Co^2+) substituted ADO was produced through minimal media expression, validated by ICP-MS, and analyzed for binding by SPR (Fig. 2E).
(§5) SPR measurements were made using a Biacore T200 (Cytiva) instrument and data were analyzed using the Biacore Insight Evaluation Software (Cytiva; https://www.cytivalifesciences.com/en/us/shop/protein-analysis/spr-label-free-analysis/spr-software-and-extensions/biacore-insight-evaluation-software-p-23528). Biotinylated-ADO was immobilized on a Biotin CAP chip (Cytiva) with a target density of ∼2500 to 3000 RU and peptide/protein substrates were injected over the chip. […] A buffer comprising 20 mM Hepes pH 7.5, 500 mM NaCl, 10 mM DTT, and 0.1% (v/v) tween-20 was used as the running buffer at a flow rate of 50 μl/min.
For orientation: SPR reads the build-up and loss of mass on a sensor chip optically.

Experiment [3] has as its target T2, ADO-Co^2+ (Homo sapiens, UniProt Q96SZ5).
T2 construct: Full-length human ADO (UniProt ID: Q96SZ5) was cloned; made in house; host or cells: Rosetta2(DE3) Escherichia coli, M9 minimal media with 0.2 mM Co2+ or Zn2+
T2 sequence (Q96SZ5 1-270): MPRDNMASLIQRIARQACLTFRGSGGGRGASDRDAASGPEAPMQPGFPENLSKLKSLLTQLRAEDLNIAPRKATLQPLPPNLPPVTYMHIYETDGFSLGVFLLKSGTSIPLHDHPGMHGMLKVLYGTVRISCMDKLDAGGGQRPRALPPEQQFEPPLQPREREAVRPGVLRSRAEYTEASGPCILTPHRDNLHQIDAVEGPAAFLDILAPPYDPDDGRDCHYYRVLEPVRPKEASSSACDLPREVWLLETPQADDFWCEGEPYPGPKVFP
Put plainly: LC-MS turnover time course with cobalt-substituted ADO. Format: biochemical. Conditions: 100 μM peptide, 0.1 μM enzyme, 37 °C, attributed to residual iron bound ADO. The method, then:
as §1, §2, §3

The target of experiment [4] is T3, ADO (2-aminoethanethiol dioxygenase), iron-bound wild type (Homo sapiens, UniProt Q96SZ5).
T3 construct: Full-length human ADO (UniProt ID: Q96SZ5) was cloned; made in house; host or cells: Rosetta2(DE3) Escherichia coli
T3 sequence (Q96SZ5 1-270): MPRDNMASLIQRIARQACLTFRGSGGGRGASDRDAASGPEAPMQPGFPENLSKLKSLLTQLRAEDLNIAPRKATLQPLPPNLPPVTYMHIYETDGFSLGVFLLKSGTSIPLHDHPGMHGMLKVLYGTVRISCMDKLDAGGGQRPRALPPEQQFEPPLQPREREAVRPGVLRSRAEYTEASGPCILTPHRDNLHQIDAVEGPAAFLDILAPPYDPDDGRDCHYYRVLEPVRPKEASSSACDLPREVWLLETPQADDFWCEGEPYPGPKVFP
Put plainly: SPR binding of peptide/protein substrates to immobilised ADO. Particulars: for Kd: SPR steady state, 1:1 binding model, biotinylated ADO on Biotin CAP chip, 4 °C, 20 mM Hepes pH 7.5, 500 mM NaCl, 10 mM DTT, 0.1% tween-20, geometric mean (± SD) of minimum three independent measurements, read-out: Equilibrium dissociation constant KD.
Text: ADO catalyzes the O2-dependent sulfinylation of Nt-cys residues, which reportedly bind to the iron cofactor in a monodentate arrangement through ligation of the thiol group ([14], [15]). To test the importance of Nt-cys modifications and substitutions on ADO association, a SPR assay was established. […] Data collected under steady state conditions is presented in the main text and kinetic constants are provided in the Tables S1–S8 (alongside steady state measurements). All measurements were collected at 4 °C to minimize enzyme activity.
as §5
For metal-chelation experiments, a mixture of 10 mM 1, 10-phenanthroline and 100 mM EDTA (pH 8) was injected onto the chip using 10 × 60 s injections at a 100 μl/min flow rate. […] The instrument and chip were primed into buffer excluding reducing agents before conducting metal chelation and iron reconstitution.

For experiment [5], the target named is T4, ADO-H193D (Homo sapiens, UniProt Q96SZ5, H193D).
T4 construct: Full-length human ADO (UniProt ID: Q96SZ5) was cloned; made in house; host or cells: Rosetta2(DE3) Escherichia coli
T4 sequence (Q96SZ5 1-270 H193D): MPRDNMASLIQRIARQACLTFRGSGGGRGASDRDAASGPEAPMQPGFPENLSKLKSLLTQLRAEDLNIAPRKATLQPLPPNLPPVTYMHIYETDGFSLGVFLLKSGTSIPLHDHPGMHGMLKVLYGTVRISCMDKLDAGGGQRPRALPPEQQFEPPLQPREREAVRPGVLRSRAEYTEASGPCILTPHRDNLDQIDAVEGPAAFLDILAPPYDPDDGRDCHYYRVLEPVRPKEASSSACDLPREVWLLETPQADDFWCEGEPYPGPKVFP
Put plainly: SPR binding to metal-deficient ADO-H193D mutant. Particulars: 4 °C.
Text: To further validate the importance of metal coordination in protein substrate binding, an ADO-H193D mutant, which is known to impair iron retention, was generated (Fig. S1B). A significant reduction in metal occupancy was confirmed by ICP-MS (Fig. 2C). This correlated with a low SPR-binding response of approximately ∼2 to 3 RU, indicating a reduced population of substrate-binding ADO on the chip relative to the total amount of immobilized ADO (Figs. 2D and S5D). Furthermore, the calculated Kᴅ values with native RGS5 and IL32 peptides were ∼13-fold and ∼77-fold weaker, respectively, than the interactions with WT ADO (Table S3).
as §5

Experiment [6] addresses T2, ADO-Co^2+. Briefly: SPR binding (single cycle kinetics) to cobalt-substituted ADO. Particulars: 4 °C, significantly slower off-rate. As to the method: as §4, §5
Experiment [7] has as its target T5, ADO (Homo sapiens, UniProt Q96SZ5).
T5 construct: Full-length human ADO (UniProt ID: Q96SZ5) was cloned; made in house; host or cells: Rosetta2(DE3) Escherichia coli
T5 sequence (Q96SZ5 1-270): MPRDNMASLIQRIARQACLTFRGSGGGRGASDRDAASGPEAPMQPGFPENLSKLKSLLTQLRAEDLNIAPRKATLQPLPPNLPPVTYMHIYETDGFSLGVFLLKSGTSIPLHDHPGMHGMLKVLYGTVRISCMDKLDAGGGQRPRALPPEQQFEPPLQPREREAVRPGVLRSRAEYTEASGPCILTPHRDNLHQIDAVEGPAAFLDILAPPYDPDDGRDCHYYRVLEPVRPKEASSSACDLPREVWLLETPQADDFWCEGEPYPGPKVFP
Put plainly: LC-MS enzyme activity assay (Nt-cys sulfinylation by ADO). Particulars: 100 μM peptide, 0.1 μM ADO, 37 °C, 45 s and 1 h incubations. Format: biochemical. The method, then:
[…] Otherwise stated, the reaction buffer contained 50 mM Tris pH 7.5, 50 mM NaCl, and 5 mM TCEP. The reactions were quenched by mixing the sample 1:10 (peptide) or 1:5 (protein) with 1% formic acid (v/v).
Peptide and protein samples were injected onto a Chromolith RP-18 Endcapped HPLC Columns (100–2 mm; Merck) and Discovery BIO Wide Pore C5 HPLC Column (Supelco), respectively, heated to 40 °C and eluted at 0.3 ml/min using a gradient of 95% deionized water supplemented with 0.1% (v/v) formic acid to 95% acetonitrile. Oxidation was monitored by an ultra high-performance liquid chromatography MS using ExionLC AD (Sciex) and SelexION (Sciex) mass spectrometer operated in a positive electrospray TOF (+ESI-TOF) mode. Instrument parameters, data acquisition and data processing were controlled by Analyst software (Sciex; https://sciex.com/products/software/analyst-software). The peptide data processing was performed using Skyline software (MacCoss Lab Software; https://skyline.ms/project/home/software/Skyline/begin.view) ([38]). All figures and parameters were generated using GraphPad Prism 9 (GraphPad; https://www.graphpad.com/features).

Experiment [8] addresses T5, ADO. Briefly: 15N-HSQC NMR titration with ADO. Format: binding. Conditions: 50 μM 15N-labelled protein, 20 mM Hepes pH 7.5, 150 mM NaCl, 10 mM DTT, ADO up to 800 μM. The method, then:
(§6) For titrations with ADO, ^15N-labeled RGS5^FL proteins were prepared at 50 μM, in buffer containing 20 mM Hepes pH 7.5, 150 mM NaCl, 10 mM DTT, and 10% (v/v) D2O. ^15N-HSQC spectra were collected before and after the addition of ADO to the labeled RGS5^FL samples. Intensity-based CSP plots were produced by calculating peak height values from the ^15N-HSQCs before and after addition of ADO and normalizing against the heights of ∼5 peaks from the HSQC that remained invariant throughout the titration.

The target in experiment [9] is T4, ADO-H193D. Put plainly: 15N-HSQC NMR titration with ADO-H193D. Format: binding. Conditions: 50 μM 15N-labelled protein, 150 μM ADO-H193D. As to the method: as §6

Where a SMILES comes first, the peptide text is derived from it.

For the molecule `CC(C)C[C@H](NC(=O)CNC(=O)[C@H](CCCCN)NC(=O)[C@@H](N)CS)C(=O)N[C@@H](C)C(=O)N[C@@H](C)C(=O)N[C@@H](CC(C)C)C(=O)N1CCC[C@H]1C(=O)N[C@@H](Cc1c[nH]cn1)C(=O)N[C@@H](CO)C(=O)N[C@@H](CS)C(=O)N[C@@H](CC(C)C)C(=O)N[C@@H](CCC(=O)O)C(=O)N[C@@H](CCCNC(=N)N)C(N)=O` [RGS5] (H-CKGLAALPHSCLER-NH2), the “Conversion by ADO-Zn^2+ overnight” value in experiment [1] is reported as about 80%. Also, the Kd turned out to be 250 ± 370 nM in [2] and 290 ± 45 nM in [4]. In experiment [3], the “Conversion by ADO-Co^2+ overnight” value was about 80%.
With “H-CFPKVLSDDMKKLK-NH2 (C-terminus assumed) [IL32]”, in experiment [5], the “Fold weaker KD with ADO-H193D than with WT ADO” value was about 77 fold. Besides, the “Fold increase in binding affinity with ADO-Co^2+ relative to native ADO” value in experiment [6] is about 10 fold. Also, in experiment [7], the “Oxidation (sulfinylation, +32 Da) by ADO” value is “could be oxidized by ADO”. Further, the Kd in [4] amounted to 270 ± 5 nM. Moreover, in experiment [4] (SPR, ADO prior to chelation treatment), the “Maximum response (Rmax)” value was about 20 RU. For the same molecule, the “Loss in Rmax following chelation of the immobilized ADO-bound metal” value in experiment [4] (SPR, after 10 mM 1,10-phenanthroline and 100 mM EDTA) is recorded as about 80%.

B1: RGS5^FL-C2S: full-length RGS5 C2S mutant (protein)
chain: MSKGLAALPHSCLERAKEIKIKLGILLQKPDSVGDLVIPYNEKPEKPAKTQKTSLDEALQWRDSLDKLLQNNYGLASFKSFLKSEFSEENLEFWIACEDYKKIKSPAKMAEKAKQIYEEFIQTEAPKEVNIDHFTKDITMKNLVEPSLSSFDMAQKRIHALMEKDSLPRFVRSEFYQELIK
modifications: left off: His tag, N-terminal, cleaved | SUMO, N-terminal, cleaved
notes: full-length RGS5 C2S mutant
For B1, the “15N-HSQC chemical shift perturbations on titration of ADO” value in [8] is listed as “induced CSPs in the portion of the ^15N-HSQC corresponding to the disordered N terminus of RGS5”. In [9], the “15N-HSQC interaction on titration of ADO-H193D” value is reported as “no interaction was observed”.

For orientation: Kd means the equilibrium constant for the complex coming apart.

The values above are taken from article PMC11406360, “The enzymatic oxygen sensor cysteamine dioxygenase binds its protein substrates through their N-termini” (The Journal of Biological Chemistry, 2024).
